Test results published in the supplement of paper PMC10307832.

Tests used:
Test in all cases: relative viability (nuclei count vs DMSO), 5 days (fraction); higher = more cells survive
[1] = compound: CO[C@H]1C[C@@H]2CC[C@@H](C)[C@@](O)(O2)C(=O)C(=O)N2CCCC[C@H]2C(=O)O[C@H]([C@H](C)C[C@@H]2CC[C@@H](OCCO)[C@H](OC)C2)CC(=O)[C@H](C)/C=C(\C)[C@@H](O)[C@@H](OC)C(=O)[C@H](C)C[C@H](C)/C=C/C=C/C=C/1C [Everolimus] + CC1(C)CCC(c2ccc(Cl)cc2)=C(CN2CCN(c3ccc(C(=O)NS(=O)(=O)c4ccc(N[C@H](CCN5CCOCC5)CSc5ccccc5)c(S(=O)(=O)C(F)(F)F)c4)cc3)CC2)C1 [Navitoclax] (partner 0.5 µM)
How it was run: (§1)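 For relative viability, nuclei counts in treated wells were divided by those in vehicle wells. Lung cancer cell lines had been pin-tool dosed in 1536-well plates the day after seeding and cultured for 5 days, then fixed and stained in one step (final 0.05% Triton X-100, 1% formaldehyde, 1 ug/ml Hoechst) and imaged at 4×. Doses were one drug alone or a fixed anchor-drug dose plus five library-drug doses (not always all listed) in √10 steps, and values are duplicate-plate medians.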

[2] = compound: CO[C@H]1C[C@@H]2CC[C@@H](C)[C@@](O)(O2)C(=O)C(=O)N2CCCC[C@H]2C(=O)O[C@H]([C@H](C)C[C@@H]2CC[C@@H](OCCO)[C@H](OC)C2)CC(=O)[C@H](C)/C=C(\C)[C@@H](O)[C@@H](OC)C(=O)[C@H](C)C[C@H](C)/C=C/C=C/C=C/1C [Everolimus] + CCNC(=O)c1noc(-c2cc(C(C)C)c(O)cc2O)c1-c1ccc(CN2CCOCC2)cc1 [Luminespib] (partner 0.01 µM)
How it was run: as §1

[3] = compound: CO[C@H]1C[C@@H]2CC[C@@H](C)[C@@](O)(O2)C(=O)C(=O)N2CCCC[C@H]2C(=O)O[C@H]([C@H](C)C[C@@H]2CC[C@@H](OCCO)[C@H](OC)C2)CC(=O)[C@H](C)/C=C(\C)[C@@H](O)[C@@H](OC)C(=O)[C@H](C)C[C@H](C)/C=C/C=C/C=C/1C [Everolimus] + Cc1nc(Nc2ncc(C(=O)Nc3c(C)cccc3Cl)s2)cc(N2CCN(CCO)CC2)n1 [Dasatinib] (partner 0.075 µM)
How it was run: as §1

[4] = compound: CO[C@H]1C[C@@H]2CC[C@@H](C)[C@@](O)(O2)C(=O)C(=O)N2CCCC[C@H]2C(=O)O[C@H]([C@H](C)C[C@@H]2CC[C@@H](OCCO)[C@H](OC)C2)CC(=O)[C@H](C)/C=C(\C)[C@@H](O)[C@@H](OC)C(=O)[C@H](C)C[C@H](C)/C=C/C=C/C=C/1C [Everolimus] + CC(C)C[C@H](NC(=O)[C@H](Cc1ccccc1)NC(=O)c1cnccn1)B(O)O [Bortezomib] (partner 0.002 µM)
How it was run: as §1

Row | Cell Line | relative viability ([1]; first compound 0.01 µM) | relative viability ([1]; first compound 0.03162 µM) | relative viability ([1]; first compound 0.1 µM) | relative viability ([1]; first compound 0.3162 µM) | relative viability ([1]; first compound 1 µM) | relative viability ([2]; first compound 0.01 µM) | relative viability ([2]; first compound 0.03162 µM) | relative viability ([2]; first compound 0.1 µM) | relative viability ([2]; first compound 0.3162 µM) | relative viability ([2]; first compound 1 µM) | relative viability ([3]; first compound 0.01 µM) | relative viability ([3]; first compound 0.03162 µM) | relative viability ([3]; first compound 0.1 µM) | relative viability ([3]; first compound 0.3162 µM) | relative viability ([3]; first compound 1 µM) | relative viability ([4]; first compound 0.01 µM) | relative viability ([4]; first compound 0.03162 µM) | relative viability ([4]; first compound 0.1 µM) | relative viability ([4]; first compound 0.3162 µM) | relative viability ([4]; first compound 1 µM)
1 | HOP-62 | 0.997 | 0.875 | 0.862 | 0.786 | 0.948 | 0.918 | 0.853 | 0.782 | 0.919 | 0.926 | 0.394 | 0.424 | 0.352 | 0.382 | 0.387 | 0.493 | 0.662 | 0.399 | 0.489 | 0.574
2 | LC-2-ad | 0.339 | 0.245 | 0.284 | 0.245 | 0.236 | 1.17 | 1.05 | 0.832 | 1.08 | 0.892 | 0.544 | 0.51 | 0.515 | 0.427 | 0.505 | 1.05 | 1.1 | 0.997 | 0.943 | 1
3 | LCLC-97TM1 | 0.417 | 0.388 | 0.255 | 0.217 | 0.239 | 0.76 | 0.743 | 0.549 | 0.581 | 0.769 | 0.929 | 0.851 | 0.932 | 0.836 | 0.917 | 0.607 | 0.489 | 0.525 | 0.246 | 0.495
4 | LOU-NH91 | 0.53 | 0.59 | 0.473 | 0.524 | 0.496 | 0.284 | 0.307 | 0.317 | 0.321 | 0.314 | 0.486 | 0.467 | 0.476 | 0.434 | 0.449 | 0.504 | 0.521 | 0.488 | 0.521 | 0.518
5 | LU99A | 0.409 | 0.503 | 0.406 | 0.412 | 0.421 | 0.226 | 0.204 | 0.185 | 0.191 | 0.253 | 0.452 | 0.499 | 0.439 | 0.284 | 0.35 | 0.647 | 0.599 | 0.543 | 0.568 | 0.614
6 | LXF-289 | 0.99 | 1.04 | 0.958 | 0.96 | 0.957 | 0.59 | 0.512 | 0.582 | 0.641 | 0.66 | 0.291 | 0.199 | 0.151 | 0.197 | 0.178 | 0.976 | 1.01 | 0.987 | 1.03 | 1.01
7 | NCI-H23 | 0.556 | 0.424 | 0.44 | 0.544 | 0.557 | 0.211 | 0.2 | 0.21 | 0.232 | 0.218 | 0.406 | 0.371 | 0.386 | 0.391 | 0.484 | 0.497 | 0.471 | 0.334 | 0.565 | 0.555
8 | NCI-H322M | 1.21 | 1.05 | 0.905 | 0.902 | 0.79 | 0.579 | 0.568 | 0.387 | 0.554 | 0.543 | 0.243 | 0.245 | 0.245 | 0.243 | 0.244 | 0.974 | 0.995 | 1.01 | 0.939 | 0.948
9 | NCI-H441 | 0.658 | 0.577 | 0.79 | 0.73 | 0.482 | 0.272 | 0.267 | 0.223 | 0.271 | 0.234 | 0.55 | 0.501 | 0.431 | 0.504 | 0.47 | 0.364 | 0.497 | 0.504 | 0.457 | 0.506
10 | NCI-H460 | 0.998 | 1.11 | 0.704 | 1.1 | 0.779 | 0.0198 | 0.0198 | 0.0232 | 0.0224 | 0.0194 | 0.38 | 0.38 | 0.323 | 0.203 | 0.298 | 0.827 | 0.982 | 0.672 | 0.881 | 1.08
11 | NCI-H520 | 0.537 | 0.454 | 0.421 | 0.535 | 0.445 | 0.23 | 0.237 | 0.215 | 0.235 | 0.206 | 0.118 | 0.143 | 0.176 | 0.144 | 0.176 | 0.327 | 0.282 | 0.243 | 0.195 | 0.276
12 | NCI-H596 | 0.427 | 0.361 | 0.394 | 0.374 | 0.369 | 0.636 | 0.5 | 0.379 | 0.533 | 0.519 | 0.395 | 0.428 | 0.392 | 0.462 | 0.482 | 0.813 | 0.716 | 0.658 | 0.612 | 0.589
13 | NCI-H647 | 0.782 | 0.659 | 0.609 | 0.646 | 0.748 | 0.11 | 0.143 | 0.111 | 0.107 | 0.142 | 0.15 | 0.198 | 0.184 | 0.145 | 0.157 | 0.635 | 0.59 | 0.601 | 0.635 | 0.693
